From ChEMBL document CHEMBL1136483, “Synthesis and antiviral evaluation of 3-hydroxy-2-methylpyridin-4-one dideoxynucleoside derivatives” (Bioorg Med Chem Lett, 2003) come the findings set out here.

Experiment [1] concerns CCRF-CEM. Kind of experiment: Compound concentration required to reduce viability of CEM cells. In kind it is functional. The following applies: Homo sapiens.
Experiment [2] relates to HEL. Kind of experiment: Compound was tested for anti-viral activity against HSV-1TK neg in HEL cells. In kind it is functional, cell-based. The following applies: Homo sapiens.
Experiment [3] deals with Human herpesvirus 2 (Herpes simplex virus type 2). Kind of experiment: Compound was tested for anti-viral activity against HSV-2(G) in HEL cells.
Experiment [4] has as its system CCRF-CEM. Kind of experiment: Compound was tested for anti-viral activity against HIV-2 in CEM cells. The following applies: Homo sapiens. In kind it is functional, cell-based.
The test system of experiment [5] is HEL. Kind of experiment: Compound concentration required to reduce viability of HEL cells. In kind it is functional. The following applies: Homo sapiens.
For experiment [6], the system named is CCRF-CEM. Kind of experiment: Compound was tested for anti-viral activity against HIV-1 in CEM cells. In kind it is functional, cell-based. The following applies: Homo sapiens.
For experiment [7], the system named is HEL. Kind of experiment: Compound was tested for anti-viral activity against HSV-1(KOS) in HEL cells. In kind it is functional, cell-based. The following applies: Homo sapiens.

As for `Cc1c(O)c(=O)ccn1[C@H]1CC[C@@H](CO)O1`, the CC50 in experiment [1] is 101 µM; in experiment [5], more than 900 µM. Besides, the EC50 was 500 µM in experiment [2]; more than 900 µM in experiment [3]; more than 50 µM in experiment [4]; more than 50 µM in experiment [6]; 40 µM in experiment [7].
On to `Cc1c(O)c(=O)ccn1[C@@H]1CC[C@@H](CO)O1`, for which the results for the CC50 in experiment [1] and in experiment [5] were more than 50 µM and more than 900 µM, respectively. Besides, the EC50 is 500 µM in experiment [2]; 500 µM in experiment [3]; more than 50 µM in experiment [4]; more than 50 µM in experiment [6]; 177 µM in experiment [7].
Turning to `Cc1c(O)c(=O)ccn1[C@@H]1CS[C@@H](CO)O1` (racemic), the half-maximal cytotoxic concentration (CC50) in experiment [1] was 203 µM; in experiment [5], more than 400 µM. The 50% effective concentration (EC50) in experiment [2] is 95 µM; in experiment [3], 90 µM; in experiment [4] it was more than 80 µM; in experiment [6] it was more than 80 µM; in experiment [7] it was 40 µM.
In the case of `Cc1c(O)c(=O)ccn1[C@H]1CS[C@@H](CO)O1` (racemic), the CC50 in experiment [1] was 203 µM; in experiment [5], more than 100 µM. Moreover, the EC50 in experiment [2] was 80 µM; in experiment [3] it was 81 µM; in experiment [4] it was more than 80 µM; in experiment [6], more than 80 µM; in experiment [7], 32 µM.
Consider `Nc1nc2c(ncn2COCCO)c(=O)[nH]1` [ACYCLOVIR], for which the CC50 is more than 200 µM in experiment [1] and more than 1700 µM in experiment [5]. The EC50 in experiment [2] is 88 µM; in experiment [4] it was more than 200 µM; in experiment [6] it was more than 200 µM; in experiment [7], 0.32 µM.
Turning to `Nc1ccn(C[C@@H](CO)OCP(=O)(O)O)c(=O)n1` [CIDOFOVIR], the 50% cytotoxic concentration (CC50) was more than 200 µM in experiment [1] and more than 350 µM in experiment [5]. For the same compound, the EC50 in experiment [4] is more than 200 µM; in experiment [6], more than 200 µM; in experiment [7], 0.57 µM.
Take `Nc1nc2c(ncn2COC(CO)CO)c(=O)[nH]1` [GANCICLOVIR]: the CC50 is more than 200 µM in experiment [1] and more than 400 µM in experiment [5]. The results for the EC50 in experiment [3], in experiment [4] and in experiment [6] were 0.06 µM, more than 200 µM and more than 200 µM, respectively.
